From patent US4404217A, “3-Indolyl alkylene amino propanols and cardiovascular compositions thereof” (C. M. Industries, priority 1979, dated 1983)
Where two headings read alike, the source gives them in different places.

Columns and labels:
[1] = target: T1, β adrenergic receptors (β1) (Canis lupus familiaris, UniProt P79148); experiment: Antagonism of the effects of isoprenaline, tachycardia (β1), anaesthetized dog, IV; type: in vivo; conditions: for cardioselectivity β1 - β2 / ED50: dog; for cardioselectivity β1 - β2: isoprenaline antagonism, β1 versus β2; for ED50: read-out: ID50 ISOPRENALINE β1; for cardioselective in vivo (selectively inhibit the cardiac receptors): test with isoprenaline
T1 construct: The dog is anaesthetized using sodium pentobarbital; from tissue; host or cells: whole anaesthetized dog (heart)

[2] = target: T2, β adrenergic receptors (β2) (Canis lupus familiaris, UniProt P54833); experiment: Antagonism of the effects of isoprenaline, hypotension (β2), anaesthetized dog, IV; type: in vivo; conditions: read-out: ID50 ISOPRENALINE β2
T2 construct: The dog is anaesthetized using sodium pentobarbital; from tissue; host or cells: whole anaesthetized dog (vasculature)
Description: (§1) The dog is anaesthetized using sodium pentobarbital, administered by the IV route at a dose of 30 mg/kg. A cannula placed in the saphenous vein allows the intra-venous injections of the products. The animal is submitted to intubation and is allowed to breathe spontaneously.
(§2) The cardiac frequency and the systemic arterial pressure are studied and the variations of these parameters are observed after intra-venous injection of the product to be tested. Each product is tested with increasing doses.
The antagonism of the products with respect to the β stimulant cardio-vascular effects of isoprenaline on the β adrenergic receptors has been sought. […] The last column indicates the cardioselectivity (β1 >β2) or a low cardioselectivity β1 ≥β2, or no cardioselectivity β1 <β2 and β1 =β2.

[3] = system: α adrenergic receptors; experiment: Antagonism of the effects of noradrenaline (pressure response), anaesthetized dog, IV; type: in vivo; conditions: 50% inhibition of pressure response to noradrenaline
Description: as §1, §2
The antagonism of the products with respect to the vascular effects provoked by the IV administration of noradrenaline on the α adrenergic receptors has been sought. The results presented in Table III are expressed in ID50 : it is the dose (mg/kg) which provokes the inhibition by 50% of the pressure response due to the IV administration of noradrenaline.

[4] = target: T3, β1 receptor (Canis lupus familiaris, UniProt P79148); experiment: Displacement of 3H dihydroalprenolol, plasmic membranes of hearts of dogs; type: binding, dog
T3 construct: plasmic membranes of hearts of dogs (β1 receptor); from tissue; host or cells: dog heart plasma membranes
Description: (§3) The binding tests are effected on suspensions of plasmic membranes coming from various organs. The suspensions of membranes are placed in incubation with the tritiated ligand and various concentrations of products to be tested. After incubation, each test is filtered on GFB(Whatman) filter, the filters are dried and introduced into counting flasks. The measurement of the radioactivity is assessed by scintillation in a liquid medium.
(§4) The tests were made on plasmic membranes of hearts of dogs (β1 receptor) and lungs of rats (β2 receptors), in the presence of ^3 H dihydroalprenolol 4×10^-9 M.

[5] = target: T4, β2 receptors (Rattus norvegicus, UniProt P10608); experiment: Displacement of 3H dihydroalprenolol, plasmic membranes of lungs of rats; type: binding
T4 construct: lungs of rats (β2 receptors); from tissue; host or cells: rat lung plasma membranes
Description: as §3, §4

[6] = target: T5, α2 receptor (Rattus norvegicus, UniProt P22909); experiment: Displacement of 3H clonidine, plasmic membranes of rat brains; type: binding; conditions: for affinity for the receptor with clonidine (α2): in vitro
T5 construct: plasmic membranes of rat brains; from tissue; host or cells: rat brain plasma membranes
T5 sequence (P22909 1-465): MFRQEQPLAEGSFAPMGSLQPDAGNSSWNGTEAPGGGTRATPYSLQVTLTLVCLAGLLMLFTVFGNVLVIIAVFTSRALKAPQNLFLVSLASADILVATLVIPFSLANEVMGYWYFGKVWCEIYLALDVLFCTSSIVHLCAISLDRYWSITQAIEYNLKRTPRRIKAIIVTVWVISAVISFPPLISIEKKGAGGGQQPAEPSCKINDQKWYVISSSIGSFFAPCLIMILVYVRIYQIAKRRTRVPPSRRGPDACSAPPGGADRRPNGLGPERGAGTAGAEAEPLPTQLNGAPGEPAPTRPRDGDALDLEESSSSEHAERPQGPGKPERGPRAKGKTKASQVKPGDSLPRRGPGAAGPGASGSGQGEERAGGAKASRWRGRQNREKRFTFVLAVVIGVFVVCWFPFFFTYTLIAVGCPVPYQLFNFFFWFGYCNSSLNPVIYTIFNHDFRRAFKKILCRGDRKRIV
Description: as §3
(§5) The tests were made on plasmic membranes of rat brains, in the presence of ^3 H clonidine 1.2×10^-9 M (α2 receptor) and of ^3 H WB4101 (N-[2-(2.6dimethoxyphenoxy)ethyl]1.4benzodioxane-2-methylamine), 0.2×10^-9 M (α1 receptor).

[7] = system: α1 receptor; experiment: Displacement of 3H WB 4101, plasmic membranes of rat brains; type: binding; conditions: for affinity for the receptor with WB 4101 (α1): in vitro; for EC50: read-out: EC50 of DISPLACEMENT of 3H WB 4101, rat brain membranes, 3H WB4101 0.2×10^-9 M
Description: as §3, §5

[8] = Cardiac frequency and arterial pressure in the anaesthetized dog after intravenous injection; type: in vivo; conditions: i.v. route, anaesthetised dog
Description: as §1, §2

[9] = system: platelet aggregation; experiment: Anti-aggregating activity, BORN technique, plasma rich in platelets, ADP; type: cell-based, human; conditions: for IC50: Homo sapiens, Platelet, read-out: concentration for inhibiting by 50% the maximum rate of aggregation; for inhibition of the platelet response with respect to the ADP: human platelet-rich plasma
Description: The anti-aggregating activity of the CM 7743, 7744, 7824, 7854, 7859 and 7874 has been studied according to the BORN technique on plasma rich in platelets of human origin. ADP has been used as indicator of platelet aggregation. […] The required concentration for inhibiting by 50% the maximum rate of aggregation varies from 45 to 100 μM.

[10] = IV, 50% inhibition of isoprenaline hypotension

T1 sequence (P79148 whole entry): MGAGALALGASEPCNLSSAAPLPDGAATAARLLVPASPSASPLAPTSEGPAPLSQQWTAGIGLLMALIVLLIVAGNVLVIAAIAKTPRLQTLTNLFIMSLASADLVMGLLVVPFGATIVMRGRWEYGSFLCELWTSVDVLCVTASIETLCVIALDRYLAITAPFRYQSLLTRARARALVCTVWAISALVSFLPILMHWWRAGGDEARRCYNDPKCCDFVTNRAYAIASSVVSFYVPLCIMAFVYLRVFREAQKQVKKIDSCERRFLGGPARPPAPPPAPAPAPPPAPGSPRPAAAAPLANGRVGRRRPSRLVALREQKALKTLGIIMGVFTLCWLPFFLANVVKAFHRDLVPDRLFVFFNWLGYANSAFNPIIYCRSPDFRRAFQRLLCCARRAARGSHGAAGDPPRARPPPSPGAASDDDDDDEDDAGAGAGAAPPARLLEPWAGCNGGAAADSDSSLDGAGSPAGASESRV
T3 sequence (P79148 whole entry): as above
T4 sequence (P10608 whole entry): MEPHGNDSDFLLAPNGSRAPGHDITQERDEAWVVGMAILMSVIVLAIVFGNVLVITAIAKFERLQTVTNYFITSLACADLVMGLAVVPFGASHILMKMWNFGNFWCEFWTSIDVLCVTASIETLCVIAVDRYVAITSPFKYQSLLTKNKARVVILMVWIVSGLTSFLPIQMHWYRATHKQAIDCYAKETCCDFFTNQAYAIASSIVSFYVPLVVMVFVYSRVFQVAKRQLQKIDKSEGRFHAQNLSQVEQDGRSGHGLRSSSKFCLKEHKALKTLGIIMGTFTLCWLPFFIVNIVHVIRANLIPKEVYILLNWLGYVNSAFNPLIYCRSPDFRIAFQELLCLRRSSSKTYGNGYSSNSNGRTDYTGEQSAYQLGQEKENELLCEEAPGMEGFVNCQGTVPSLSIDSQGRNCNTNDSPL
T2 sequence (P54833 whole entry): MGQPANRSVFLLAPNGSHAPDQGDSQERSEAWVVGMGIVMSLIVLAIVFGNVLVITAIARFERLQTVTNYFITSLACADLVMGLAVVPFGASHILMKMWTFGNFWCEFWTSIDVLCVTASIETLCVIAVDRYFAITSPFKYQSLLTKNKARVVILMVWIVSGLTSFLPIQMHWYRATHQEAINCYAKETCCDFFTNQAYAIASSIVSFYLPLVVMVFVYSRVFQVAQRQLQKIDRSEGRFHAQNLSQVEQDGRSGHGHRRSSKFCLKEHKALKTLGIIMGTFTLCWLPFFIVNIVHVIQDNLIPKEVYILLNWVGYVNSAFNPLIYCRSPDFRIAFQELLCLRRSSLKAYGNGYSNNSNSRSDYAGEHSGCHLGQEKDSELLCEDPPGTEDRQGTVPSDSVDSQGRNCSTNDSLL

| ED50 ([1]; IV, 50% inhibition of isoprenaline tachycardia) | EC50 ([4]; dog heart membranes, 3H dihydroalprenolol 4×10^-9 M) | EC50 ([5]; rat lung membranes, 3H dihydroalprenolol 4×10^-9 M) | EC50 ([6]; rat brain membranes, 3H clonidine 1.2×10^-9 M) | SMILES | cardioselectivity β1 - β2 ([1]; IV) | ED50 ([1]; iv) | cardioselective in vivo (selectively inhibit the cardiac receptors) [1] | ED50 [2, 10] | ID50 NORADRENALINE α [3] | EC50 [4] | EC50 [5] | EC50 [6] | affinity for the receptor with WB 4101 (α1) [7] | EC50 [7] | reduction in the peripheral arterial pressure [8] | IC50 [9] | inhibition of the platelet response with respect to the ADP [9] | ED50 ([2]; iv) | affinity for the receptor with clonidine (α2) [6] |
| --- | --- | --- | --- | --- | --- | --- | --- | --- | --- | --- | --- | --- | --- | --- | --- | --- | --- | --- | --- |
| – | – | – | – | Cc1ccccc1OCC(O)CNC(C)Cc1c[nH]c2ccccc12 (centres unmarked) [compound 7744] | β1 > β2 (cardioselectivity (β1 >β2)) | 0.1 mg/kg | cardioselective in vivo | ≥ 0.3 mg/kg | 0.1 to 1 mg/kg | 31 nM | 52 nM | 20.5 nM | have an affinity | 500 nM | reduction in the peripheral arterial pressure | 45000 to 100000 nM | inhibited the platelet response | – | – |
| – | – | – | – | CC(Cc1c[nH]c2ccccc12)NCC(O)COc1ccccc1[N+](=O)[O-] (centres unmarked) [compound 7808] | β1 > β2 (cardioselectivity (β1 >β2)) | 0.3 mg/kg | cardioselective in vivo | – | 0.3 mg/kg | 28.5 nM | 24 nM | 25 nM | have an affinity | 320 nM | reduction in the peripheral arterial pressure | – | – | 1 mg/kg | no affinity |
| – | – | – | – | CC(Cc1c[nH]c2ccccc12)NCC(O)COc1ccccc1C#N (centres unmarked) [compound 7824] | β1 ≥ β2 (low cardioselectivity β1 ≥β2) | 0.3 mg/kg | – | – | 1 mg/kg | 13.5 nM | 10 nM | – | have an affinity | 110 nM | reduction in the peripheral arterial pressure | 45000 to 100000 nM | inhibited the platelet response | ≥ 0.3 mg/kg | no affinity |
| – | – | – | – | CC(Cc1c[nH]c2ccccc12)NCC(O)COc1cccc2[nH]ccc12 (centres unmarked) [compound 7874] | β1 ≥ β2 (low cardioselectivity β1 ≥β2) | 0.01 mg/kg | – | 0.01 to 0.03 mg/kg | > 0.03 mg/kg | 4 nM | 8.2 nM | 20 nM | have an affinity | 215 nM | reduction in the peripheral arterial pressure | 45000 to 100000 nM | inhibited the platelet response | – | – |
| 3 mg/kg | 2050 nM | 2000 nM | 29.5 nM | Cc1ccccc1OC[C@H](O)CN[C@H](CO)Cc1c[nH]c2ccccc12 [compound 7903] | β1 < β2 (no cardioselectivity β1 <β2) | – | – | 1 mg/kg | 3 mg/kg | – | – | – | – | 1.9 nM | reduction in the peripheral arterial pressure | – | – | – | no affinity |
